What was measured:
[1] = Gelled deodorant stick blends, silica stabilized vs non-stabilized nanoplates vs silver salt: settling, peak resonance shift, hue; assay type: physicochemical; conditions: Table A blends
Method: Gelled sticks with silver nanoplates were prepared by blending water, dipropylene glycol and propylene glycol components, heating the resulting blends to 85° C., adding the poloxamine to the heated blend and mixing until clear, adding the sodium stearate to the heated blends and again mixing until clear, cooling the blends to 75° C. and adding the 2-amino-2-methylpropan-1-ol with agitation, cooling the blends to 71-73° C., and mixing in the remaining ingredients. Non-stabilized silver nanoplates and silica stabilized silver nanoplates were prepared according to the methods in example 1 and 2 respectively and added into separate blends. A silver salt was added to a separate blend. The blends were then allowed to cool to room temperature and gel.
A 100 microliter aliquot of from non-stabilized and silica stabilized silver blend solutions was added to a 96 well plate and allowed to cool to room temperature and gel.

[2] = Gelled deodorant stick blends, PVP nanoplates with or without borate vs silver salt: settling, peak resonance shift, hue; assay type: physicochemical; conditions: Table B blends
Method: Gelled sticks with silver nanoplates were prepared by blending water, dipropylene glycol and propylene glycol components, heating the resulting blends to 85° C., adding the poloxamine to the heated blend and mixing until clear, adding the sodium stearate to the heated blends and again mixing until clear, cooling the blends to 75° C. and adding the 2-amino-2-methylpropan-1-ol with agitation, cooling the blends to 71-73° C., and then mixing in the remaining ingredients. PVP and borate stabilized silver nanoplates were prepared according to the methods in example 1 with the addition of PVP and borate into the mixture after synthesis. In one blend was added borate prior to adding silver nanoplates, in another blend borate was not added. A silver salt was added to a separate blend with no borate. The blends were then allowed to cool to room temperature and gel.
A 100 microliter aliquot from non-stabilized and silica stabilized silver blend solutions was added to a 96 well plate and allowed to cool to room temperature and gel.

[3] = EPA Reference Dose for Chronic Oral Exposure (RfD) for silver and intravenous conversion; parameters: species or system human population
From the text: We estimate less than half of the silver has diffused from the silicone into the IV fluid over 7 days based on the silver nanoplate plasmonic peak wavelength, which corresponds directly with the diameter decrease in the etched silver nanoplates. Even if all of the silver had diffused from the silicone into the IV fluid during 7 days, this would correspond to a daily body absorption of 1.6 micrograms per day. In the United States, the EPA has set a Reference Dose for Chronic Oral Exposure (RfD) of 5 micgrams per Kg per day for silver. RfD is the daily exposure to the human population (including sensitive subgroups) that is likely to be without an appreciable risk of deleterious effects during a lifetime. Oral dose is estimated based on a conversion of 4% absorption of dietary silver into the body. Thus, an intravenous RfD would be approximately 0.2 micrograms per day of silver. For a 70 Kg person, this corresponds to 14 micrograms per day.

[4] = EPA, United States; cited from earlier work

| settling in gelled deodorant blend [1] | settling in gelled deodorant blend [2] | SMILES | intravenous RfD for a 70 Kg person ([3]; 70 Kg person) [micrograms per day] | intravenous RfD ([3]; conversion of 4% absorption of dietary silver) | Reference Dose for Chronic Oral Exposure (RfD) [4] [micgrams per Kg per day] |
| --- | --- | --- | --- | --- | --- |
| exhibited settling | exhibited settling | [Cl][Ag] [silver chloride, Silver Chloride] |  |  |  |
|  |  | [Ag] [silver] | 14 | approximately 0.2 micrograms per day | 5 |

Reference: US20160287741A1, “METASTABLE SILVER NANOPARTICLE COMPOSITES WITH COLOR INDICATING PROPERTIES” (SIENNA LABS, INC., priority 2013, published 2016)
